Source: patent US7265109B2, “Thiazole derivatives” (Hoffmann-La Roche Inc., priority 2003, dated 2007)

Each compound was assayed against T1, recombinant mouse NPY5-receptor (mNPY5) (Mus musculus, UniProt O70342) (assay: Radioligand competition binding). Conditions: membranes of HEK293 cells expressing mNPY5; 100 pM [125I]labelled peptide YY (PYY); 1 h at 22° C.; read-out: NPY5-R (mouse) IC50.
T1 construct: The full-length cDNA encoding the mouse NPY5 (mNPY5) receptor was amplified from mouse brain cDNA; expressed in transfected cells; membrane preparation
T1 sequence (O70342 1-466): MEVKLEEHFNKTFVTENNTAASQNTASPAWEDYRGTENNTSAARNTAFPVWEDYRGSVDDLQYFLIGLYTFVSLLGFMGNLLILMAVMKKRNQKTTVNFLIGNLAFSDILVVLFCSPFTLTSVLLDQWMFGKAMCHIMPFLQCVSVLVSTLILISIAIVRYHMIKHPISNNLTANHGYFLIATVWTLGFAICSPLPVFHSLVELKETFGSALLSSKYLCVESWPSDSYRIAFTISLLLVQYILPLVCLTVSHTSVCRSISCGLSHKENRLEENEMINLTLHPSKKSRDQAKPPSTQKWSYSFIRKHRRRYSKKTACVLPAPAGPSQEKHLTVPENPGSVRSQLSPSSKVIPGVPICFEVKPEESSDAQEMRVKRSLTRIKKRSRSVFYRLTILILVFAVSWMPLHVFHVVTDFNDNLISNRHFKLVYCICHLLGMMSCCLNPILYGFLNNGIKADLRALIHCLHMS
From the text: The full-length cDNA encoding the mouse NPY5 (mNPY5) receptor was amplified from mouse brain cDNA using specific primers, designed based on the published sequence, and Pfu DNA-Polymerase. The amplification product was subcloned into the mammalian expression vector pcDNA3 using Eco RI and XhoI restriction sites. Positive clones were sequenced and one clone, encoding the published sequence was selected for generation of stable cell clones.
Human embryonic kidney 293 (HEK293) cells were transfected with 10 μg mNPY5 DNA using the lipofectamine reagent. Two days after transfection, geneticin selection (1 mg/ml) was initiated and several stable clones were isolated. One clone was further used for pharmacological characterization.
Human embryonic kidney 293 cells (HEK293), expressing recombinant mouse NPY5-receptor (mNPY5) were broken by three freeze/thawing cycles in hypotonic Tris buffer (5 mM, pH 7.4, 1 mM MgCl2), homogenized and centrifuged at 72,000×g for 15 min. The pellet was washed twice with 75 mM Tris buffer, pH 7.4, containing 25 mM MgCl2 and 250 mM sucrose, 0.1 mM phenylmethylsulfonylfluoride and 0.1 mM 1,10-pheneanthrolin, resuspended in the same buffer and stored in aliquots at −80° C. Protein was determined according to the method of Lowry using bovine serum albumine (BSA) as a standard. […]

IC50 [nM]	Structure (SMILES)
0.77	Cc1ccccc1C(=O)c1cnc(NC2CCN(S(=O)(=O)c3cccs3)CC2)s1 [Example 41, {2-[1-(Thiophene-2-sulfonyl)-piperidin-4-ylamino]-thiazol-5-yl}-o-tolyl-methanone]
0.85	Cc1ccccc1C(=O)c1cnc(NCC2CCN(S(=O)(=O)N(C)C)CC2)s1 [Example 18, 4-{[5-(2-Methyl-benzoyl)-thiazol-2-ylamino]-methyl}-piperidine-1-sulfonic acid dimethylamide]
0.75	CCc1ccccc1C(=O)c1cnc(NC2CCN(S(=O)(=O)c3cccs3)CC2)s1 [Example 32, (2-Ethyl-phenyl)-{2-[1-(thiophene-2-sulfonyl)-piperidin-4-ylamino]-thiazol-5-yl}-methanone]
